Laboratory results from ChEMBL document CHEMBL1135175, “Synthesis and bioactivities of novel bicyclic thiophenes and 4,5,6,7-tetrahydrothieno[2,3-c]pyridines as inhibitors of tumor necrosis factor-alpha (TNF-alpha) production” (Bioorg Med Chem Lett, 2002).

How the values were obtained:
[1] = organism: Rattus norvegicus; assay: Evaluated for its ability to inhibit LPS stimulated production of TNF-alpha in rat whole blood; format: functional, organism-based
[2] = system: Rattus norvegicus; assay: TNF-alpha inhibiting activity by in vivo inhibition of serum TNF production in rat at 50 mg/kg, peroral administration.; format: functional; details: route oral
[3] = system: Rattus norvegicus; assay: Compound was evaluated for percentage recovery from femur weight in adjuvant-induced arthritic model of rat at a dose of 10 mg/kg; format: functional, organism-based; parameters: dose 10 mg/kg
[4] = system: Rattus norvegicus; assay: Compound was evaluated for percentage recovery from paw edema in adjuvant-induced arthritic model of rat at a dose of 10 mg/kg; format: functional, organism-based; parameters: dose 10 mg/kg
[5] = system: Rattus norvegicus; assay: Compound was evaluated for percentage recovery from GAG in adjuvant-induced arthritic model of rat at a dose of 10 mg/kg; format: functional, organism-based; parameters: dose 10 mg/kg
[6] = system: Rattus norvegicus; assay: Compound was evaluated for percentage recovery from femur weight in adjuvant-induced arthritic model of rat at a dose of 50 mg/kg; format: functional
[7] = system: Rattus norvegicus; assay: Compound was evaluated for percentage recovery from GAG in adjuvant-induced arthritic model of rat at a dose of 50 mg/kg; format: functional
[8] = system: Rattus norvegicus; assay: Compound was evaluated for percentage recovery from paw edema in adjuvant-induced arthritic model of rat at a dose of 50 mg/kg; format: functional
[9] = system: Rattus norvegicus; assay: TNF-alpha inhibiting activity was assessed by In vivo inhibition of serum TNF production in rat, at 50 mg/kg, po; format: functional
[10] = system: Rattus norvegicus; assay: Compound was evaluated for percentage recovery from paw edema in adjuvant-induced arthritic model of rat at a dose of 2 mg/kg; format: functional
[11] = system: Rattus norvegicus; assay: Compound was evaluated for percentage recovery from femur weight in adjuvant-induced arthritic model of rat at a dose of 2 mg/kg; format: functional
[12] = system: Rattus norvegicus; assay: Compound was evaluated for percentage recovery from GAG in adjuvant-induced arthritic model of rat at a dose of 2 mg/kg; format: functional

IC50 [1]	Compound	inhibition in vivo at 50 mg/kg [2]	further results
13 µM	CCOC(=O)c1c(NC(=O)Nc2cccnc2)sc2c1CCN(C(C)=O)C2	48.7%	–
1.3 µM	CCCN(CC1CC1)C(=O)Nc1sc2c(c1C(=O)OCC)CCN(C(C)=O)C2	34.8%	–
> 100 µM	CC(=O)N1CCc2c(sc(NC(=O)C(C)C)c2C(N)=O)C1	–	–
17 µM	CCOC(=O)c1c(NC(=O)N2CCN(C)CC2)sc2c1CCN(C(C)=O)C2	40.7%	–
18 µM	CCCCC(=O)Nc1sc2c(c1C(=O)OCC)CCN(C(C)=O)C2	42.9%	–
10 µM	CCOC(=O)c1c(NC(=O)C(C)C)sc2c1CCOC2	17.6%	–
7.9 µM	CCOC(=O)c1c(NC(=O)CC)sc2c1CCN(C(C)=O)C2	90.1%	–
11 µM	CCOC(=O)c1c(NC(=O)C(C)(C)C)sc2c1CCN(C(C)=O)C2	63.7%	–
32 µM	CCOC(=O)c1c(NC(=O)C(C)C)sc2c1CCN(C)C2	22.7%	–
–	AURANOFIN	–	Femur weight [3]: 17%; Paw edema [4]: -4.7%; GAG [5]: 73%
10 µM	CCOC(=O)c1c(NC(=O)C(C)C)sc2c1CCN(C(=O)c1ccccc1)C2	31.8%	–
42 µM	CCOC(=O)c1c(NC(=O)C(C)C)sc2c1CCN(Cc1ccccc1)C2	–	–
20 µM	CCOC(=O)c1c(NC(=O)CC(C)C)sc2c1CCN(C(C)=O)C2	33.1%	–
22 µM	CCOC(=O)c1c(NC(=O)N2CCN(C=O)CC2)sc2c1CCN(C(C)=O)C2	41.9%	–
22 µM	CCOC(=O)c1c(NC(=O)CC)sc2c1CCN(CC)C2	9.2%	–
–	CCOC(=O)c1c(NC(=O)C(C)C)sc2c1CCN(C(C)=O)C2	49.1%	–
20 µM	CCOC(=O)Nc1sc2c(c1C(=O)OCC)CCN(C(C)=O)C2	57.1%	–
12 µM	CCOC(=O)c1c(NC(=O)N(CC)C2CCCCC2)sc2c1CCN(C(C)=O)C2	7.6%	–
22 µM	CC(=O)N1CCc2c(sc(NC(=O)C(C)C)c2C#N)C1	23.2%	–
10 µM	CCCCC(CC)COC(=O)c1c(NC(=O)C(C)C)sc2c1CCN(C(C)=O)C2 (stereo unspecified)	10.6%	–
6.2 µM	CCOC(=O)c1c(NC(=O)N(CC)CC)sc2c1CCN(C(C)=O)C2	92.3%	Femur weight [6]: 110%; GAG [7]: 119%; Paw edema [8]: 42.5%
15 µM	CCOC(=O)c1c(NC(=O)C(C)C)sc2c1CCN(CC)C2	69.2%	–

IC50 [1]	Compound	inhibition in vivo at 50 mg/kg [2]	further results
13 µM	CCOC(=O)c1c(NC(=O)OCCN2CCOCC2)sc2c1CCN(C(C)=O)C2	57.6%	–
19 µM	CCNC(=O)Nc1sc2c(c1C(=O)OCC)CCN(C(C)=O)C2	17%	–
7.1 µM	CC(=O)N1CCc2c(sc(NC(=O)C(C)C)c2C(=O)OC(C)C)C1	42.1%	–
12 µM	CCOC(=O)c1c(N(C)C(=O)N(CC)CC)sc2c1CCN(C(C)=O)C2	51.9%	–
–	CCOC(=O)c1c(NC(=O)c2cccnc2)sc2c1CCN(C(C)=O)C2	23.5%	–
13 µM	CCOC(=O)c1c(NC(=O)N2CCCCC2)sc2c1CCN(C(C)=O)C2	46.8%	–
13 µM	CCOC(=O)c1c(NC(C)=O)sc2c1CCN(C(C)=O)C2	78.4%	–
2.2 µM	CCOC(=O)c1c(NC(=O)N(CC)CC)sc2c1CCN(CC)C2	–	inhibition in vivo at 50 mg/kg [9]: 88.7%
–	COc1ccc2c(c1)c(CC(=O)O)c(C)n2C(=O)c1ccc(Cl)cc1 [INDOMETHACIN]	–	Paw edema [10]: 72.1%; Femur weight [11]: 20%; GAG [12]: 7.4%
34 µM	CCOC(=O)c1c(NC(=O)C(C)C)sc2c1CCSC2	21.2%	–
40 µM	CCCN1CCc2c(sc(NC(=O)C(C)C)c2C(=O)OCC)C1	–	–
12 µM	CCOC(=O)c1c(NC(=O)N2CCSCC2)sc2c1CCN(C(C)=O)C2	20%	–
> 100 µM	CC(=O)N1CCc2c(sc(NC(=O)C(C)C)c2C(=O)O)C1	–	–
0.9 µM	CCOC(=O)c1c(NC(=O)NC(Cc2ccccc2)C(=O)OC)sc2c1CCN(C(C)=O)C2 (stereo unspecified)	8.2%	–
28 µM	CCCC(=O)Nc1sc2c(c1C(=O)OCC)CCN(C(C)=O)C2	33.3%	–
16 µM	CCOC(=O)c1c(NC(=O)N2CCNCC2)sc2c1CCN(C(C)=O)C2	51.4%	–
6 µM	CCOC(=O)c1c(NC(=O)N2CCSC2)sc2c1CCN(CC)C2	5.4%	–
9 µM	CCOC(=O)c1c(N(C)C(=O)CC)sc2c1CCN(C(C)=O)C2	81%	–
12 µM	CCOC(=O)c1c(NC(=O)NN2CCOCC2)sc2c1CCN(C(C)=O)C2	22.1%	–
28 µM	CCOC(=O)c1c(NC(=O)C(C)C)sc2c1CCCC2	1.8%	–
1 µM	CCOC(=O)c1c(NC(=O)N2CCOCC2)sc2c1CCN(C(C)=O)C2	90.3%	–
–	CCOC(=O)c1c(NC(=O)C2CC2)sc2c1CCN(C(C)=O)C2	64.2%	–
